Patent publication US8586588B2, “Aryl pyridazinone derivatives and their use as H3 receptor ligands” (Cephalon, Inc., priority 2006, dated 2013)

Columns and labels:
[1] = target: T1, human H3 receptor (Homo sapiens, UniProt Q9Y5N1); assay: Human H3 radioligand binding ([3H]-N-alpha-methylhistamine, CHO cell membranes, SPA); settings: Table B, binding constant as letter class
T1 construct: expressed in transfected cells
Outline: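 CHO cell membranes expressing human H3 (10 μg protein/well) incubated 4 h at room temperature, in the dark, with ~1 nM [3H]-N-alpha-methylhistamine, compounds (0.01 nM-30 μM) and SPA beads in 50 mM Tris HCl pH 7.4, 5 mM MgCl2, 0.1% BSA. Non-specific binding defined with 10 μM clobenpropit.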

[2] = target: T2, rat histamine H3 receptor (Rattus norvegicus, UniProt Q9QYN8); assay: Rat H3 radioligand binding ([3H]-N-alpha-methylhistamine, CHO-A3 cell membranes, SPA); settings: Table B, binding constant as letter class; read-out: rat H3 Ki
T2 construct: encoding the entire 445-amino-acid rat histamine H3 receptor; expressed in transfected cells
Outline: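 Membranes from CHO-A3 cells stably expressing rat H3 (10 μg protein) incubated 4 h at room temperature in 50 mM Tris-HCl pH 7.4, 5 mM MgCl2, 0.1% BSA with ~1 nM [3H]-N-alpha-methylhistamine and compound (0.01 nM-30 μM). Bound radioligand read by scintillation proximity; nonspecific binding with 10 μM clobenpropit.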

T1 sequence (Q9Y5N1 whole entry): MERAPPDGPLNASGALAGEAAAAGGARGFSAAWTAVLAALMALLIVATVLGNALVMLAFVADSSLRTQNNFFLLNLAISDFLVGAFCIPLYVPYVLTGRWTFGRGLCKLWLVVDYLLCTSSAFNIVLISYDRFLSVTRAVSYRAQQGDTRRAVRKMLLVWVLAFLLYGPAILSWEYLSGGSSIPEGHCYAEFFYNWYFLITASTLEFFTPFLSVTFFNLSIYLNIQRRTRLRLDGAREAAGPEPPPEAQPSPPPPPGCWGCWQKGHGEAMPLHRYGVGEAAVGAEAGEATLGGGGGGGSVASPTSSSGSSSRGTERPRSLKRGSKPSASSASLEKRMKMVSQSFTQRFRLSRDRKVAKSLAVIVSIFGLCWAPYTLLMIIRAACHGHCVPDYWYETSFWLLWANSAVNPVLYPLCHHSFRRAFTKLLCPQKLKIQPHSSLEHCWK
T2 sequence (Q9QYN8 whole entry): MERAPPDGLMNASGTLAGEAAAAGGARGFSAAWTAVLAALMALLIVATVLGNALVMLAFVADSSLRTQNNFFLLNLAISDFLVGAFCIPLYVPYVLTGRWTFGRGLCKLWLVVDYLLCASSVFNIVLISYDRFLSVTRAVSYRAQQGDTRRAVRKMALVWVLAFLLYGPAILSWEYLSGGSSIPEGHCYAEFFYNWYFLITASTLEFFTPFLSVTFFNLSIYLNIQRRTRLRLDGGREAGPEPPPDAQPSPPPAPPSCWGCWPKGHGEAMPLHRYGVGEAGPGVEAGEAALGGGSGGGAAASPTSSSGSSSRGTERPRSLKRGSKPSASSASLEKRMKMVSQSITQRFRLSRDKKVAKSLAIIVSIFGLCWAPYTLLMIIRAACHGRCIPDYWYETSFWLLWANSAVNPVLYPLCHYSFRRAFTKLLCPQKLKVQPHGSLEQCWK

SMILES	Ki [1] [nM]	melting point	Ki [2] [nM]
O=c1ccc(-c2ccc(OC3CCN(C4CCC4)CC3)c(F)c2)n[nH]1 [Example 156, 6-[4-(1-Cyclobutyl-piperidin-4-yloxy)-3-fluoro-phenyl]-2H-pyridazin-3-one]	0.1 to 100	236 to 238 °C	0.1 to 100
C[C@@H]1CCCN1CCCOc1ccc(C2=NNC(=O)CC2)cc1F [Example 180, 6-{3-Fluoro-4-[3-((R)-2-methyl-pyrrolidin-1-yl)-propoxy]-phenyl}-4,5-dihydro-2H-pyridazin-3-one]	0.1 to 100	132 to 133 °C	0.1 to 100
CC(C)N1CCC(Oc2ccc(-c3ccc(=O)[nH]n3)cn2)CC1 [Example 142, 6-[6-(1-Isopropyl-piperidin-4-yloxy)-pyridin-3-yl]-2H-pyridazin-3-one]	0.1 to 100	195 to 197 °C	101 to 500
O=C1CCC(c2ccc(OCCCN3CCCCC3)c(F)c2)=NN1 [Example 181, 6-[3-Fluoro-4-(3-piperidin-1-yl-propoxy)-phenyl]-4,5-dihydro-2H-pyridazin-3-one]	0.1 to 100	164 to 166 °C	101 to 500
COc1cc(-c2ccc(=O)[nH]n2)ccc1OCCCN1CCC[C@H]1C [Example 136, 6-{3-Methoxy-4-[3-((R)-2-methyl-pyrrolidin-1-yl)-propoxy]-phenyl}-2H-pyridazin-3-one]	0.1 to 100	148 °C (dec.)	101 to 500
O=C1CCC(c2ccc(OC3CCNCC3)cc2)=NN1C1CCC1 [Example 165, 2-Cyclobutyl-6-[4-(piperidin-4-yloxy)-phenyl]-4,5-dihydro-2H-pyridazin-3-one]	> 1000	168 to 170 °C	> 1000
CC1(C)CC(c2ccc(OC3CCN(C4CCC4)CC3)c(F)c2)=NNC1=O [Example 153, 6-[4-(1-Cyclobutyl-piperidin-4-yloxy)-3-fluoro-phenyl]-4,4-dimethyl-4,5-dihydro-2H-pyridazin-3-one]	0.1 to 100	147 to 149 °C	0.1 to 100
O=C1CCC(c2ccc(OC3CCN(C4CCC4)CC3)cc2)=NN1CC(F)(F)F [Example 166, 6-[4-(1-Cyclobutyl-piperidin-4-yloxy)-phenyl]-2-(2,2,2-trifluoro-ethyl)-4,5-dihydro-2H-pyridazin-3-one]	0.1 to 100	146 to 147 °C	0.1 to 100
O=c1cc(-c2ccccn2)c(-c2ccc(OC3CCN(C4CCC4)CC3)cc2)n[nH]1 [Example 115, 6-[4-(1-Cyclobutyl-piperidin-4-yloxy)-phenyl]-5-pyridin-2-yl-2H-pyridazin-3-one]	0.1 to 100	203 °C (dec.)	0.1 to 100
O=c1ccc(-c2ccc(OC3CCN(C4CCC4)CC3)nc2)n[nH]1 [Example 141, 6-[6-(1-Cyclobutyl-piperidin-4-yloxy)-pyridin-3-yl]-2H-pyridazin-3-one]	0.1 to 100	217 to 219 °C	0.1 to 100
O=c1ccc(-c2ccc(OCCCN3CCCCC3)cc2)nn1CC(F)(F)F [Example 171, 6-[4-(3-Piperidin-1-yl-propoxy)-phenyl]-2-(2,2,2-trifluoro-ethyl)-2H-pyridazin-3-one]	0.1 to 100	128 to 130 °C	0.1 to 100
O=c1[nH]nc(-c2ccc(OCCCN3CCCCC3)cc2)c2c1CCC2 [Example 133, 4-[4-(3-Piperidin-1-yl-propoxy)-phenyl]-2,5,6,7-tetrahydro-cyclopenta[d]pyridazin-1-one]	0.1 to 100	134 °C (dec.)	0.1 to 100

The remaining lines, values ahead:

Ki [1] [nM]	melting point	Ki [2] [nM]	SMILES
0.1 to 100	153 °C	101 to 500	C[C@@H]1CCCN1CC(O)COc1ccc(-c2ccc(=O)[nH]n2)cc1 (stereo partly drawn) [Example 256, 6-{4-[2-Hydroxy-3-((R)-2-methyl-pyrrolidin-1-yl)-propoxy]-phenyl}-2H-pyridazin-3-one]
0.1 to 100	147 °C	0.1 to 100	C[C@@H]1CCCN1C[C@@H](O)COc1ccc(-c2ccc(=O)[nH]n2)cc1 [Example 258, 6-{4-[(R)-2-Hydroxy-3-((R)-2-methyl-pyrrolidin-1-yl)-propoxy]-phenyl}-2H-pyridazin-3-one]
0.1 to 100	165 to 167 °C	0.1 to 100	C[C@@H]1CCCN1CCCOc1c(Br)cc(-c2ccc(=O)[nH]n2)cc1Br [Example 185, 6-{3,5-Dibromo-4-[3-((R)-2-methyl-pyrrolidin-1-yl)-propoxy]-phenyl}-2H-pyridazin-3-one]
0.1 to 100	178 to 179 °C	0.1 to 100	Cc1onc2c(=O)[nH]nc(-c3ccc(OCCCN4CCCCC4)cc3)c12 [Example 207, 3-Methyl-4-[4-(3-piperidin-1-yl-propoxy)-phenyl]-6H-isoxazolo[3,4-d]pyridazin-7-one]
0.1 to 100	79 to 81 °C	0.1 to 100	O=C1NN=C(c2ccc(OC3CCN(C4CCC4)CC3)cc2)C2CC12 (stereo not drawn) [Example 244, 5-[4-(1-Cyclobutyl-piperidin-4-yloxy)-phenyl]-3,4-diaza-bicyclo[4.1.0]hept-4-en-2-one]
0.1 to 100	169 to 171 °C	0.1 to 100	C[C@@H]1CCCN1CCCOc1c(F)cc(-c2ccc(=O)[nH]n2)cc1F [Example 184, 6-{3,5-Difluoro-4-[3-((R)-2-methyl-pyrrolidin-1-yl)-propoxy]-phenyl}-2H-pyridazin-3-one]
